Experimental data: US9084799B2, “Inhaled combination therapy” (Pulmagen Therapeutics (Synergy) Limited, priority 2005, dated 2015)
Where two headings read alike, the source gives them in different places.

Legend:
[1] = Single inhaled exposure, dose 187.5 mg; asthma patients; Bohadana et al. (1980); cited from earlier work
[2] = tested on: TS induced BAL inflammation; assay: Tobacco smoke (TS) induced BAL inflammation, 11 daily exposures, BAL cell counts; type: in vivo, A/J mice; conditions: for % Inhibition, BAL Total cells / % Inhibition, BAL lymphocytes / % Inhibition, BAL macrophages / % Inhibition, BAL neutrophils: 24 hrs following 11 daily TS exposures
From the text: Female inbred A/J mice (body weights on initial day of use: ˜20 g) were obtained from Harlan, full barrier bred and certified free from specified micro-organisms on receipt. The mice were housed, up to 5 per cage, in individually ventilated, polycarbonate solid bottomed cages (IVC) with grade 8 aspen chip bedding. Environment (airflow, temperature and humidity) within the cages was controlled by the IVC system (Techniplast). Food (RM 1, Special Diet Services) and water were provided ad libitum. Individual animals were identified by unique coloured “pentel” markings on their tails, weighed and randomly assigned to treatment groups.
In this exposure protocol, mice were exposed in groups of 5 in individual clear polycarbonate chambers (27 cm×16 cm×12 cm). The TS from the cigarettes was allowed to enter the exposure chambers at a flow rate of 100 ml/min. In order to minimise any potential problems caused by repeated exposure to a high level of TS (6 cigarettes), the exposure of the mice to TS was increased gradually over the exposure period to a maximum of 6 cigarettes. The exposure schedule used in this study was as follows:
A further group of mice were exposed to air on a daily basis for equivalent lengths of time as controls (no TS exposure).
The trachea was cannulated using a Portex nylon intravenous cannula (pink luer fitting) shortened to approximately 8 mm. Phosphate buffered saline (PBS) containing heparin (10 units/ml) was used as the lavage fluid. A volume of 0.4 ml was gently instilled and withdrawn 3 times using a 1 ml syringe and then placed in an Eppendorf tube and kept on ice prior to subsequent determinations.
Lavage fluid was separated from cells by centrifugation and the supernatant decanted and frozen for subsequent analysis. The cell pellet was re-suspended in a known volume of PBS and total cell numbers calculated by counting a stained (Turks stain) aliquot under a microscope using a haemocytometer.
The residual cell pellet was diluted to approximately 10^5 cells per ml. A volume of 500 μl was placed in the funnel of a cytospin slide and centrifuged for 8 min at 800 rpm. The slide was air dried and stained using ‘Kwik-Diff’ solutions (Shandon) as per the proprietary instructions. When dried and cover-slipped, differential cells were counted using light microscopy. Up to 400 cells were counted by unbiased operator using light microscopy. Cells were differentiated using standard morphometric techniques.
Since tests for normality were positive the data was subjected to a one way analysis of variance test (ANOVA), followed by a Bonferroni correction for multiple comparisons in order to test for significance between treatment groups. A “p” value of <0.05 was considered to be statistically significant. Percentage inhibitions were automatically calculated within the Excel spreadsheets for the cell data using the formula below: […]

[3] = cited from earlier work
[4] = intra-nasal 0.1 mg/kg theophylline/0.1 mg/kg dexamethasone versus oral 1 mg/kg theophylline/0.3 mg/kg dexamethasone
Protocol: (§1) The mice were terminally anaesthetised and blood collected by cardiac puncture into syringes containing 20 U lithium Heparin in 5 ul. The collected blood was mixed and decanted into eppendorf tubes before centrifugation in a microfuge. Plasma was collected and stored at −80° C. prior to analysis by an HPLC/MS/MS method. The equipment used in the measurement of plasma levels were a Micromann Quatro Micro Mass Spectrometer (Micromass UK Limited) and a Waters 2795 Alliance HT liquid chromatograph (Waters USA).
(§2) Samples were prepared for analysis by adding 200 μl of acetonitrile (containing 0.25 mg/l dextrorphan as an internal standard) to 50 μl of each thawed sample and standard and mixed vigorously. Each sample and standard was then centrifuged at 10000 g for 2 minutes and the supernatant removed for LC-MS/MS analysis.
(§3) Positive ions for parent compound and a specific fragment product were monitored in a Multiple Reaction Monitoring mode using a Micromass Quatro Micro Mass Spectrometer with Micromass MassLynx software version 4.0. A 25 μl aliquot of each sample and standard was injected onto the liquid chromatography system. Lowest order of quantification (LOQ) was determined as 0.016 mg/L with the detection limit being 0.003 mg/L.

[5] = cited from earlier work; remark: listed apart in the source
in vivo = conditions: A/J, mouse, 1 hour post dosing
Protocol: as §1, §2, §3

[6] = tested on: key inflammatory cells in COPD; conditions: 500 mcg inhaled twice daily, 3 months, COPD patients; Hattatowa et al. 2002; cited from earlier work
mouse model of asthma = conditions: 350 mcg/kg intra-nasally; Shen et al. 2002; cited from earlier work
[7] = Intra-nasal dosing, Dexamethasone 0.1 mg/kg
[8] = Oral dosing, Dexamethasone 0.3 mg/kg
[9] = Intra-nasal dosing, Theophylline 0.5 mg/kg
[10] = Oral dosing, Theophylline 3 mg/kg
[11] = monotherapy, oral or intra-nasal

For `Cn1c(=O)c2[nH]cnc2n(C)c1=O.NCCN` [Aminophylline, theophylline ethylenediamine], the “Net peak theophylline plasma level” value [1] is listed as 0.91 mg/L.

For `C[C@@H]1C[C@H]2[C@@H]3CCC4=CC(=O)C=C[C@]4(C)[C@@]3(F)[C@@H](O)C[C@]2(C)[C@@]1(O)C(=O)CO` [Dexamethasone], the “% Inhibition, BAL Total cells” value [2, 7] was 13%, the “% Inhibition, BAL lymphocytes” value [2, 7] was 14% and the “% Inhibition, BAL macrophages” value [2, 7] was 10%. The “% Inhibition, BAL neutrophils” value [2, 7] was 16%, the “% Inhibition, BAL Total cells” value [2, 8] was −16% and the “% Inhibition, BAL lymphocytes” value [2, 8] was −7%. For the same molecule, the “% Inhibition, BAL macrophages” value [2, 8] was −14% and the “% Inhibition, BAL neutrophils” value [2, 8] was −46%.

In the case of `Cn1c(=O)c2[nH]cnc2n(C)c1=O` [Theophylline, 3,7-dihydro-1,3-dimethyl-1H-purine-2,6-dione], the “plasma concentration of theophylline, median value” ([3]; 250 or 375 mg theophylline twice daily with 400 mcg budesonide, asthma patients, Evans et al.) is listed as 8700 ng/mL, the “Average theophylline plasma level” value ([3]; Daily dose 400 mg oral, 4 weeks, Alexander et al. (1980)) is listed as 15.1 mg/L and the “Average theophylline plasma level” value ([3]; Daily dose 600 mg oral, 4 weeks, Iversen et al. (1992)) is listed as 7.1 mg/L. The “Average theophylline plasma level” value ([3]; Daily dose 300-600 mg oral, 4 weeks, Culpitt et al. (2002)) was 9.5 mg/L, the “theophylline plasma level in 20/25 patients (average not quoted)” value ([3]; Phyllocontin or Uniphylline, daily dose 562-573 mg oral, 4 weeks, U.S. Pat. No. 6,025,360) was “had levels ≧5 mg/L” and the “systemic theophylline levels, times lower intra-nasal vs oral” value [4] was roughly 17 times. For the same molecule, the mean plasma half-life ([5]; adults) was “about 8 hours”, the “bioavailability from the gastrointestinal tract” value ([5]; oral absorption) was 90-100% and the mean plasma half-life ([5]; premature neonates) was “approximately 30 hours”. For the same molecule, the “time to peak levels following ingestion” value ([5]; slowed by the presence of food) was 1 to 2 h, the mean plasma half-life ([5]; up to the age of 20) was “approximately 3.5 hours” and the mean plasma half-life ([5]; up to the first year of life) was 5 h. The mean plasma half-life ([5]; within the first 6 months) was 12 h, the “% Inhibition, BAL Total cells” value [2, 9] was 16% and the “% Inhibition, BAL lymphocytes” value [2, 9] was 14%. For the same molecule, the “% Inhibition, BAL macrophages” value [2, 9] was 3%, the “% Inhibition, BAL neutrophils” value [2, 9] was 25% and the “% Inhibition, BAL Total cells” value [2, 10] was −11%. The “% Inhibition, BAL lymphocytes” value [2, 10] was 1%, the “% Inhibition, BAL macrophages” value [2, 10] was −4% and the “% Inhibition, BAL neutrophils” value [2, 10] was −10%. The “inhibition of total number of cells recovered in the BAL induced by TS exposure” value [2, 11] was “Neither theophylline nor dexamethasone monotherapy when given orally or by the intra-nasal route significantly inhibited”, the “inhibitory effect on specific cell types in BAL (macrophages, neutrophils, lymphocytes)” value [2, 11] was “No statistically significant inhibitory effect” and the concentration at 1 h (in vivo; mean theophylline plasma level, Intra-nasal 0.1 mg/kg theophylline in combination with 0.1 mg/kg Dexamethasone, TS exposed mice) was 22 ± 9 ng/mL. The concentration at 1 h (in vivo; mean theophylline plasma level, Intra-nasal 0.25 mg/kg theophylline in combination with 0.1 mg/kg Dexamethasone, TS exposed mice) was 45 ± 10 ng/mL, the concentration at 1 h (in vivo; mean theophylline plasma level, Intra-nasal 0.5 mg/kg theophylline in combination with 0.1 mg/kg Dexamethasone, TS exposed mice) was 74 ± 13 ng/mL and the concentration at 1 h (in vivo; mean theophylline plasma level, Oral 1 mg/kg theophylline in combination with 0.3 mg/kg Dexamethasone, TS exposed mice) was 479 ± 47 ng/mL. The concentration at 1 h (in vivo; mean theophylline plasma level, Oral 3 mg/kg theophylline in combination with 0.3 mg/kg Dexamethasone, TS exposed mice) was 1370 ± 192 ng/mL and the concentration at 1 h (in vivo; systemic theophylline exposure (plasma level), intra-nasal administration at the doses used (0.1-0.5 mg/kg)) was less than 100 ng/mL.

In the case of “(6(,11(,16(,17( )-6,9-difluoro-11-hydroxy-16-methyl-3-oxo-17-(1-oxopropoxy)androsta-1,4-diene-17-carbothioic acid S-(fluoromethyl) ester [Fluticasone]”, the “reductions in key inflammatory cells in bronchial biopsies” value [6] is listed as “did not detect significant reductions”.

For “(+)-[(RS)-16a,17a-Butylidenedioxy-11b, 21-dihydroxy-1,4-pregnadiene-3,20-dione] [Budesonide]”, the “efficacy in mouse model of asthma” value (mouse model of asthma) is given as “efficacious”.
